# Test results taken from US7901879B2, “Lactoferrin in the treatment of malignant neoplasms and other hyperproliferative diseases” (Agennix Incorporated, priority 2002, dated 2011).
# Tested on: murine squamous carcinoma cell line (SCCVII)
# Test: SCCVII floor-of-mouth tumor growth, oral rhLF and/or cisplatin (Example 6)
# Assay type: in vivo, immunocompetent C3H mice
# Description: A murine squamous carcinoma cell line (SCCVII) was injected into the floor of the mouth through the neck skin of immunocompetent C3H mice (Day 0). […] Tumors were measured in three dimensions with calipers.
# Tumor-bearing mice were randomized into a control group and seven groups receiving rhLF and/or cisplatin. RhLF (4 mg; 200 mg/Kg) was administered once daily by oral gavage for 8 days on days 5 through 12. Cisplatin was administered as a single dose of 5 mg/Kg given intraperitoneally either at the start of rhLF (day 5), in the middle (day 8) or at the end (day 12) of rhLF therapy. Animals were sacrificed on day 12 post-implantation and the residual tumor masses were measured and processed for later additional analyses.
structure (smiles),measurement,setting,value
"N.N.[Cl][Pt][Cl] [CP, Cisplatin]",TGI (%) Relative to Placebo,"cisplatin 5 mg/kg i.p. on day 5, with rhLF 200 mg/kg oral days 5-12 where combined",68%
same,TGI (%) Relative to Placebo,"cisplatin 5 mg/kg i.p. on day 8, with rhLF 200 mg/kg oral days 5-12 where combined",6%
same,TGI (%) Relative to Placebo,"cisplatin 5 mg/kg i.p. on day 12, with rhLF 200 mg/kg oral days 5-12 where combined",42%
same,TGI (%) Relative to Placebo,"pooled cisplatin day 5, 8 and 12 groups",38%
